According to patent publication US8962637B2, “Bicyclic compounds and their uses as dual c-SRC/JAK inhibitors” (Debiopharm S.A., priority 2010, dated 2015):

Legend:
[1] = target: JAK2 (Homo sapiens (Human), UniProt O60674); assay: TR-FRET JAK2 kinase assay; assay type: biochemical; conditions: ATP 10 μM; for inhibition at 0.1 µM: read-out: JAK2 % inhibition at 100 nM, 100 nM; for inhibition at 1 µM: read-out: JAK2 % inhibition at 1 μM
Experimental: (§1) Compounds were screened in the TR-FRET assay for JAK2 and c-Src kinase inhibition. Ultra light poly GT (Perkin Elmer) was used as the substrate for JAK2 and c-Src with the ATP concentration of 10 μM and 50 μM, respectively. […] The dose-response curve fitting was done using GraphPad Prism software.

[2] = target: c-Src (Homo sapiens (Human), UniProt P12931); assay: TR-FRET c-Src kinase assay; assay type: biochemical; conditions: ATP 50 μM; for inhibition at 0.1 µM: read-out: c-SRC % inhibition at 100 nM, 100 nM; for inhibition at 1 µM: read-out: c-SRC % inhibition at 1 μM
c-Src, sequence (P12931 whole entry, looked up): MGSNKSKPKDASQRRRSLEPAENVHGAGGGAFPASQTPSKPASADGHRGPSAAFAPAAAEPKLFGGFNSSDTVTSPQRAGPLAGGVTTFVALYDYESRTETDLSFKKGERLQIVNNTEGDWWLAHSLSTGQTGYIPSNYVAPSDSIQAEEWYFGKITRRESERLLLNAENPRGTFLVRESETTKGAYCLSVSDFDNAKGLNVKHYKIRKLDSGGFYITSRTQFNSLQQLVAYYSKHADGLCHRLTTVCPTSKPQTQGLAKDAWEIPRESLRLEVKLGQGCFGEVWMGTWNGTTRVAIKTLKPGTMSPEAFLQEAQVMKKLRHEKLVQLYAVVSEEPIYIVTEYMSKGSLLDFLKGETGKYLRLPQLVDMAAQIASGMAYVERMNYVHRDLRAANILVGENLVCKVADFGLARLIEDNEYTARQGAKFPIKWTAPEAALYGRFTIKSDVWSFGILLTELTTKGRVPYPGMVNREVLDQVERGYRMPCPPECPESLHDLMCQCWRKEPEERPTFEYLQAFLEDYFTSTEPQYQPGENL
Experimental: as §1

[3] = target: JAK1 (Homo sapiens (Human), UniProt P23458); assay: JAK1 kinase inhibition; assay type: biochemical; conditions: for inhibition at 0.1 µM: read-out: JAK1 % inhibition at 100 nM; for inhibition at 1 µM: read-out: JAK1 % inhibition at 1 μM
JAK1, sequence (P23458 whole entry): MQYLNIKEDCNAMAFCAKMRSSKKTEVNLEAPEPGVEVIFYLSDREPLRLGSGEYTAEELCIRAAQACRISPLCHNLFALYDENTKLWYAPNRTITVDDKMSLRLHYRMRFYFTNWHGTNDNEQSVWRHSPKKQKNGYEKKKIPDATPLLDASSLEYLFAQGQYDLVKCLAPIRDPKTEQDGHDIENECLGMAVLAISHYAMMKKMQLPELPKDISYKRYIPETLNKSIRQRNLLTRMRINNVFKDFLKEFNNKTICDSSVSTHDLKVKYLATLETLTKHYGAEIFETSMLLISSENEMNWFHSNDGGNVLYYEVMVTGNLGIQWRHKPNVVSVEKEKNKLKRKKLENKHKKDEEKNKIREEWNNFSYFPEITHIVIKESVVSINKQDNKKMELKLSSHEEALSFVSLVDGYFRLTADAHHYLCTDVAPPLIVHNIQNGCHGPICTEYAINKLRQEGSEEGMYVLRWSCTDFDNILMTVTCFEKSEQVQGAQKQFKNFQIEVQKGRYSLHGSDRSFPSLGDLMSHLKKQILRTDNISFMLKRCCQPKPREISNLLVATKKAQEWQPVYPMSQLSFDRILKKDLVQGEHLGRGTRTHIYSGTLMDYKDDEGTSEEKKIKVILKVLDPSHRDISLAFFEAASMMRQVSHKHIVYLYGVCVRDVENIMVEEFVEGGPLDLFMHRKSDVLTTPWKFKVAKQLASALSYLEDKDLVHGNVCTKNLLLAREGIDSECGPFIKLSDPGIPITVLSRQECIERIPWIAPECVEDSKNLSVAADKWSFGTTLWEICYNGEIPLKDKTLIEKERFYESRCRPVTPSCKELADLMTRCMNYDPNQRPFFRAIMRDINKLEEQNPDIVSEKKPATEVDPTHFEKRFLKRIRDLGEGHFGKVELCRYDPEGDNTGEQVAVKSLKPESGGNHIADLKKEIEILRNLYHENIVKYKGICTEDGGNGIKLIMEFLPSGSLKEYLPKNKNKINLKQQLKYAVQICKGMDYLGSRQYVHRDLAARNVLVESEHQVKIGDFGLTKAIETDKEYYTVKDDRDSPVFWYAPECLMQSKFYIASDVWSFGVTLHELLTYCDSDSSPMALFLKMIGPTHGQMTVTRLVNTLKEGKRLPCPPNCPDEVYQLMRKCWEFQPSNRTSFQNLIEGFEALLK

[4] = test system: Mda-Mb-231 cells; assay: Cell viability assay (XTT assay), Mda-Mb-231; assay type: cell-based; conditions: Homo sapiens, 72 hrs
Method in brief: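 MDA-MB-231 cells seeded and dosed next day in triplicate, incubated 72 h. Medium replaced with XTT working solution for 2-5 h, absorbance read at 465 nm, and EC50 values derived from the readings.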

[5] = test system: A549 cells; assay: Cell viability assay (XTT assay), A549; assay type: cell-based; conditions: Homo sapiens, 72 hrs
Experimental: Next day compounds were added to cells and incubated for 72 hrs. Compound treatment was done in triplicates. After 72 hrs cell culture media was aspirated from the wells and XTT working solution was added and plates were incubated for 2-5 hrs. […] EC50 values were calculated using Graphpad Prism. Tumor cell lines used in the examples of the present invention were procured from ATCC. Description of the cell lines is included in the following table: […]

[6] = test system: A431 cancer cell line; assay: Inhibition of cell growth in A431; assay type: cell-based; conditions: Homo sapiens, A-431
[7] = test system: pStat3; assay: In-Cell-Western blot assay for pStat3 (ICW) in A431 cells; assay type: cell-based; conditions: Homo sapiens, A-431, 2 hrs, read-out: pSTAT3 inhibition
Method in brief: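 Serum-starved (overnight) A431 cells treated with compound for 2 hrs, then fixed, permeabilized and probed with phospho-Stat3 antibody plus europium-labelled secondary. Europium signal normalized to Hoechst for cell number; IC50 calculated from normalized values.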

[8] = Volume distribution; conditions: in vivo
Text: Table 8 provides some volume distribution values of the compounds of the present invention.

[9] = test system: A431 tumor cells; assay: A431 xenograft model; assay type: in vivo, athymic nude mice; conditions: A431 Xenograft model, 100 MPK
Experimental: SC injection of 5×10^6 A431 tumor cells with Matrigel® on the left flank of 24 female athymic nude mice. Randomization of mice 14 days after tumor cell injection into 3 groups of 8 mice each with a mean tumor volume of 90±1 mm3.
(§2) Formulation: 20% HPC, 2% ethanol solution in PBS for the compound No. 45
• Normal saline for Gefitinib® Dosing route: Oral for the compound No. 45 and Gefitinib® Dose Volume: 10 mL/Kg body weight Dosing schedule: Once daily for 14 consecutive days (Q1Dx14) PK-PD experiment in A431 model: Tumors were allowed to grow to 250 mm^3 size. Compounds were dosed once and PBMCs and tumors were collected at Tmax for pStat3 estimation. Plasma was also collected to estimate drug concentration estimation. Efficacy experiment in A431 model: Dosage: • Group1. Vehicle control • Group2. Compound No. 45—150 MPK • Group3. […] Plasma collected for drug concentration estimation and whole blood was collected to isolate PBMCs to determine pStat3 inhibition by flow cytometry as PD readout. Tumors were snap frozen in liquid nitrogen and stored at −80° C. to estimate pStat3 by flow cytometry as PD readout Determination of Plasma Drug Concentration: […]

[10] = test system: B16F10 tumor cells; assay: B16F10 metastasis model; assay type: in vivo, C57B16 mice; conditions: B16F10 model, 5 MPK
Experimental: IV injection of 0.1×10^6 B16F10 tumor cells in the tail vain of 60 male C57B16 mice. Randomization of mice one day after tumor cell injection into 4 groups of 15 mice. Out of 15, 6 mice were sacrificed on 14th day for counting metastatic foci on lungs. Rest 9 mice were dosed continuously till morbidity/mortality for recording survival.
as §2
Plasma collected for drug concentration estimation and whole blood was collected to isolate PBMCs to determine pStat3 inhibition by flow cytometry as PD readout.

[11] = test system: pStat3; assay: Quantification of pStat3 in PBMCs by flow cytometry; assay type: in vivo, mice; conditions: B16F10 model, 5 MPK
Experimental: Phosphorylation of Stat3 was stimulated by addition of hIL6 (10 ug/mL) for 30 min at 37° C. Blood was fixed with formaldehyde (final 2% v/v) for 10 min at 37° C.
Buffy coat (PBMCs) was separated by aspirating translucent layer using pipetteman and washed twice with PBS-1×
Pre chilled PBMC's were permeabilized by adding ice cold Methanol, while vortexing gently (final volume 90% MeOH v/v) and incubated for 30 min on ice.
Permeabilized PBMCs were washed with PBS once. PBMCs re-suspended to 2×10^6 cells in 200 μL of incubation buffer for 10 min at room temperature (RT). Primary Ab was added (1:100 dilution) and incubated 45 min at RT. Washed as before (twice) and re-suspended in fluorochrome conjugated secondary Ab (1:500 dilution) and incubated at RT in dark for 30 min. Washed and re-suspended in […] PBS.
Measured pStat3 using FACS caliber machine (BD). Unstained PBMCs was used for cytometry settings. […] Histograms (cell number V/s FL1-H) were plotted. Percentage of cells that are phosphorylated by IL6 stimulation (M2 population), and inhibition of phosphorylation by inhibitor (decrease in M2 population) are calculated on histogram by marking peaks, M1 and M2.

JAK2, sequence (O60674 whole entry): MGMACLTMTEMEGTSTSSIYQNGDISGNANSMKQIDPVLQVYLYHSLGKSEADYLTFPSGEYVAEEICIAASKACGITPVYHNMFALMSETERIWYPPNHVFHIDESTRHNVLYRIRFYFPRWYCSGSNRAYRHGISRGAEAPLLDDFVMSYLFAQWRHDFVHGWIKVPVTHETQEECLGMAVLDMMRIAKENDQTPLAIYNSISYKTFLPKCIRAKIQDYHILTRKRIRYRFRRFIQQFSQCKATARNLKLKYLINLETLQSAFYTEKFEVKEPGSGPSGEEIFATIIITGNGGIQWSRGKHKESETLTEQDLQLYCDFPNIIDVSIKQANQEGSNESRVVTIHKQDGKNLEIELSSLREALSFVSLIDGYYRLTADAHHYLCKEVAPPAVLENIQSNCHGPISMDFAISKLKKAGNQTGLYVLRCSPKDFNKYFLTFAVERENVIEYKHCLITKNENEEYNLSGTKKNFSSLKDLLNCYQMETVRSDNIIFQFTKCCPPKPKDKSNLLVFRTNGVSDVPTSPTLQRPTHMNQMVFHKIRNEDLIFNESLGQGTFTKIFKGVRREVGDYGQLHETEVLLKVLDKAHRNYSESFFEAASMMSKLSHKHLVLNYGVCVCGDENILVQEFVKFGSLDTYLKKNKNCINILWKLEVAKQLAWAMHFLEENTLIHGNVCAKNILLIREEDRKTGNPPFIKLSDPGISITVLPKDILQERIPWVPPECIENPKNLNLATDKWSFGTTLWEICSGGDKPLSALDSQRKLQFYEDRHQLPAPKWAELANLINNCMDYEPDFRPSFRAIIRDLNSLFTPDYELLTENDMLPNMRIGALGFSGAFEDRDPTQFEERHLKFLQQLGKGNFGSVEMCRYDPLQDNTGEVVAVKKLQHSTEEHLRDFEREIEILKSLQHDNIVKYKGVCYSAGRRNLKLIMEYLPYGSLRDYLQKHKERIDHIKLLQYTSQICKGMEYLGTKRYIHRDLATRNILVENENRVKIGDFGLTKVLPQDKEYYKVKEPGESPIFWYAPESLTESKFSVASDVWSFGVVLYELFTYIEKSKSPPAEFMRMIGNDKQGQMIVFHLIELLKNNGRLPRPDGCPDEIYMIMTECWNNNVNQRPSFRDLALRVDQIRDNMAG

Row | Compound | IC50 [1] [nM] | IC50 [2] [nM] | inhibition at 0.1 µM [3] [%] | inhibition at 1 µM [3] [%] | EC50 [4] [nM] | EC50 [5] [nM] | EC50 [6] [nM] | IC50 [7] [nM] | Vd [8] [L/kg] | inhibition at 0.1 µM [1] [%] | inhibition at 1 µM [1] [%] | inhibition at 0.1 µM [2] [%] | inhibition at 1 µM [2] [%] | distribution volume (in words) [8] | % TGI [9] [%] | Metastasis Inhibition [10] [%] | PBMCs % pStat3 inhibition [11] [%]
1 | Cc1ccc(NC(=O)c2cccc(C(F)(F)F)c2)cc1N1CCc2nc(Nc3ccc(C(=O)N4CCN(C)CC4)cc3)ncc2C1 [Compound 17, N-(4-Methyl-3-{2-[4-(4-methyl-piperazine-1-carbonyl)-phenylamino]-7,8-dihydro-5H-pyrido[4,3-d]pyrimidin-6-yl}-phenyl)-3-trifluoromethyl-benzamide] | 3 | 2 | 85 | 89 | 44 | 10 | 92 | 150 | 7.7 |  |  |  |  |  |  |  | 
2 | Cc1ccc(NC(=O)CCC(F)(F)F)cc1N1CCc2nc(Nc3ccc(OCCN4CCCC4)cc3)ncc2C1 [Compound 147, 4,4,4-Trifluoro-N-(4-methyl-3-{2-[4-(2-pyrrolidin-1-yl-ethoxy)-phenylamino]-7,8-dihydro-5H-pyrido[4,3-d]pyrimidin-6-yl}-phenyl)-butyramide] | 21 |  |  |  | 720 |  |  |  | 20.6 | 88 | 93 | 67 | 90 |  |  |  | 
3 | COc1cc2ncnc(Nc3ccc(F)c(Cl)c3)c2cc1OCCCN1CCOCC1 [Gefitinib, reference compound] |  |  |  |  |  |  |  |  |  |  |  |  |  |  | 94.25 |  | 
4 | CC(=O)O[C@H]1C(=O)[C@@]2(C)[C@H]([C@H](OC(=O)c3ccccc3)[C@]3(O)C[C@H](OC(=O)[C@H](O)[C@@H](NC(=O)c4ccccc4)c4ccccc4)C(C)=C1C3(C)C)[C@]1(OC(C)=O)CO[C@@H]1C[C@@H]2O [Taxol, paclitaxel, reference compound] |  |  |  |  |  |  |  |  |  |  |  |  |  |  |  | 32 | 25

More lines, main results first:

Row | IC50 [1] [nM] | IC50 [2] [nM] | inhibition at 0.1 µM [3] [%] | inhibition at 1 µM [3] [%] | EC50 [4] [nM] | EC50 [5] [nM] | EC50 [6] [nM] | IC50 [7] [nM] | Vd [8] [L/kg] | inhibition at 0.1 µM [1] [%] | inhibition at 1 µM [1] [%] | inhibition at 0.1 µM [2] [%] | inhibition at 1 µM [2] [%] | distribution volume (in words) [8] | Compound | % TGI [9] [%] | Metastasis Inhibition [10] [%] | PBMCs % pStat3 inhibition [11] [%]
5 | 18 | 2 |  |  | 1200 |  |  |  | 11.8 |  |  |  |  |  | Cc1ccc(NC(=O)CC(C)C(F)(F)F)cc1N1CCc2nc(Nc3ccc(OCCN4CCCC4)cc3)ncc2C1 (centres unmarked) [Compound 155, 4,4,4-Trifluoro-3-methyl-N-(4-methyl-3-{2-[4-(2-pyrrolidin-1-yl-ethoxy)-phenylamino]-7,8-dihydro-5H-pyrido[4,3-d]pyrimidin-6-yl}-phenyl)-butyramide] |  |  | 
6 | 6 | 27 |  |  | 1380 | 1140 | 600 | 350 | 3.35 | 92 | 97 | 73 | 81 |  | CN1CCN(c2ccc(Nc3ncc4c(n3)CCN(c3cc(NC(=O)c5cccc(C(F)(F)F)c5)ccc3Cl)C4=O)cc2)CC1 [Compound 162, N-(4-Chloro-3-{2-[4-(4-methyl-piperazin-1-yl)-phenylamino]-5-oxo-7,8-dihydro-5H-pyrido[4,3-d]pyrimidin-6-yl}-phenyl)-3-trifluoromethyl-benzamide] |  |  | 
7 | 19 | 20 | 61 | 84 | 1300 | 2100 |  | 471 | 0.794 | 92 | 97 | 74 | 87 | weak volume of distribution | Cc1cc(Nc2ncc3c(n2)CCN(c2cc(NC(=O)c4cccc(C(F)(F)F)c4)ccc2Cl)C3=O)ccc1N1CCN(C)CC1 [Compound 171, N-(4-Chloro-3-{2-[3-methyl-4-(4-methyl-piperazin-1-yl)-phenylamino]-5-oxo-7,8-dihydro-5H-pyrido[4,3-d]pyrimidin-6-yl}-phenyl)-3-trifluoromethyl-benzamide] |  |  | 
